Assay results as given in ChEMBL document CHEMBL4177730, “Rational modification of semaxanib and sunitinib for developing a tumor growth inhibitor targeting ATP binding site of tyrosine kinase” (2018).
Activity calls are given as the source filed them.

Legend:
Type in all cases: functional, cell-based
HT-29 = test: Growth inhibition of human HT-29 cells at 10 uM after 48 hrs by sulforhodamine B assay
SN12C = test: Growth inhibition of human SN12C cells at 10 uM after 48 hrs by sulforhodamine B assay
NCI-H23 = test: Growth inhibition of human NCI-H23 cells at 10 uM after 48 hrs by sulforhodamine B assay
SF-539 = test: Growth inhibition of human SF539 cells at 10 uM after 48 hrs by sulforhodamine B assay
A549 = test: Growth inhibition of human A549/ATCC cells at 10 uM after 48 hrs by sulforhodamine B assay
OVCAR-4 = test: Growth inhibition of human OVCAR4 cells at 10 uM after 48 hrs by sulforhodamine B assay
IGROV-1 = test: Growth inhibition of human IGROV1 cells at 10 uM after 48 hrs by sulforhodamine B assay
K562 = test: Growth inhibition of human K562 cells at 10 uM after 48 hrs by sulforhodamine B assay
OVCAR-5 = test: Growth inhibition of human OVCAR5 cells at 10 uM after 48 hrs by sulforhodamine B assay
EKVX = test: Growth inhibition of human EKVX cells at 10 uM after 48 hrs by sulforhodamine B assay
MDA-MB-468 = test: Growth inhibition of human MDA-MB-468 cells at 10 uM after 48 hrs by sulforhodamine B assay
MOLT-4 = test: Growth inhibition of human MOLT4 cells at 10 uM after 48 hrs by sulforhodamine B assay
DU-145 = test: Growth inhibition of human DU145 cells at 10 uM after 48 hrs by sulforhodamine B assay
NCI-H460 = test: Growth inhibition of human NCI-H460 cells at 10 uM after 48 hrs by sulforhodamine B assay
HOP-62 = test: Growth inhibition of human HOP62 cells at 10 uM after 48 hrs by sulforhodamine B assay
TK-10 = test: Growth inhibition of human TK10 cells at 10 uM after 48 hrs by sulforhodamine B assay
M14 = test: Growth inhibition of human M14 cells at 10 uM after 48 hrs by sulforhodamine B assay
SNB-19 = test: Growth inhibition of human SNB19 cells at 10 uM after 48 hrs by sulforhodamine B assay
SR = test: Growth inhibition of human SR cells at 10 uM after 48 hrs by sulforhodamine B assay
SK-MEL-28 = test: Growth inhibition of human SK-MEL-28 cells at 10 uM after 48 hrs by sulforhodamine B assay
SF-295 = test: Growth inhibition of human SF295 cells at 10 uM after 48 hrs by sulforhodamine B assay
RPMI-8226 = test: Growth inhibition of human RPMI8226 cells at 10 uM after 48 hrs by sulforhodamine B assay
SNB-75 = test: Growth inhibition of human SNB75 cells at 10 uM after 48 hrs by sulforhodamine B assay
NCI-H322M = test: Growth inhibition of human NCI-H322M cells at 10 uM after 48 hrs by sulforhodamine B assay
786-0 = test: Growth inhibition of human 786-0 cells at 10 uM after 48 hrs by sulforhodamine B assay
KM12 = test: Growth inhibition of human KM12 cells at 10 uM after 48 hrs by sulforhodamine B assay
OVCAR-3 = test: Growth inhibition of human OVCAR3 cells at 10 uM after 48 hrs by sulforhodamine B assay
SF-268 = test: Growth inhibition of human SF268 cells at 10 uM after 48 hrs by sulforhodamine B assay
A498 = test: Growth inhibition of human A498 cells at 10 uM after 48 hrs by sulforhodamine B assay
MDA-MB-435 = test: Growth inhibition of human MDA-MB-435 cells at 10 uM after 48 hrs by sulforhodamine B assay
Hs-578T = test: Growth inhibition of human Hs 578T cells at 10 uM after 48 hrs by sulforhodamine B assay
HCC 2998 = test: Growth inhibition of human HCC2998 cells at 10 uM after 48 hrs by sulforhodamine B assay
SK-OV-3 = test: Growth inhibition of human SKOV3 cells at 10 uM after 48 hrs by sulforhodamine B assay
ACHN = test: Growth inhibition of human ACHN cells at 10 uM after 48 hrs by sulforhodamine B assay
COLO 205 = test: Growth inhibition of human COLO205 cells at 10 uM after 48 hrs by sulforhodamine B assay
NCI/ADR-RES = test: Growth inhibition of human NCI-ADR-RES cells at 10 uM after 48 hrs by sulforhodamine B assay
UACC-62 = test: Growth inhibition of human UACC62 cells at 10 uM after 48 hrs by sulforhodamine B assay
NCI-H522 = test: Growth inhibition of human NCI-H522 cells at 10 uM after 48 hrs by sulforhodamine B assay
UO-31 = test: Growth inhibition of human UO31 cells at 10 uM after 48 hrs by sulforhodamine B assay
U-251 = test: Growth inhibition of human U251 cells at 10 uM after 48 hrs by sulforhodamine B assay
HL-60(TB) = test: Growth inhibition of human HL-60(TB) cells at 10 uM after 48 hrs by sulforhodamine B assay
SK-MEL-5 = test: Growth inhibition of human SK-MEL-5 cells at 10 uM after 48 hrs by sulforhodamine B assay
BT-549 = test: Growth inhibition of human BT549 cells at 10 uM after 48 hrs by sulforhodamine B assay
LOX IMVI = test: Growth inhibition of human LOXIMVI cells at 10 uM after 48 hrs by sulforhodamine B assay
Malme-3M = test: Growth inhibition of human MALME-3M cells at 10 uM after 48 hrs by sulforhodamine B assay
CAKI-1 = test: Growth inhibition of human CAKI-1 cells at 10 uM after 48 hrs by sulforhodamine B assay
CCRF-CEM = test: Growth inhibition of human CCRF-CEM cells at 10 uM after 48 hrs by sulforhodamine B assay
HCT-116 = test: Growth inhibition of human HCT116 cells at 10 uM after 48 hrs by sulforhodamine B assay
MCF7 = test: Growth inhibition of human MCF7 cells at 10 uM after 48 hrs by sulforhodamine B assay
OVCAR-8 = test: Growth inhibition of human OVCAR8 cells at 10 uM after 48 hrs by sulforhodamine B assay
NCI-H226 = test: Growth inhibition of human NCI-H226 cells at 10 uM after 48 hrs by sulforhodamine B assay
T47D = test: Growth inhibition of human T47D cells at 10 uM after 48 hrs by sulforhodamine B assay
SK-MEL-2 = test: Growth inhibition of human SK-MEL-2 cells at 10 uM after 48 hrs by sulforhodamine B assay
SW-620 = test: Growth inhibition of human SW620 cells at 10 uM after 48 hrs by sulforhodamine B assay
HCT-15 = test: Growth inhibition of human HCT15 cells at 10 uM after 48 hrs by sulforhodamine B assay
HOP-92 = test: Growth inhibition of human HOP92 cells at 10 uM after 48 hrs by sulforhodamine B assay
PC-3 = test: Growth inhibition of human PC3 cells at 10 uM after 48 hrs by sulforhodamine B assay
RXF 393 = test: Growth inhibition of human RXF393 cells at 10 uM after 48 hrs by sulforhodamine B assay
MDA-MB-231 = test: Growth inhibition of human MDA-MB-231 cells at 10 uM after 48 hrs by sulforhodamine B assay

Measured: growth inhibition (GI)

O=C1/C(=C\c2cccn2Cc2ccc(Cl)cc2)c2ccccc2N1c1c(Cl)cccc1Cl
inactive: all assays above

O=C1/C(=C\c2ccc[nH]2)c2ccccc2N1c1c(Cl)cccc1Cl
inactive: all assays above
